Among the data in patent US10233173B2, “Substituted 1,2,3-triazoles as NR2B-selective NMDA modulators” (JANSSEN PHARMACEUTICA NV, priority 2016, dated 2019) are IC50 values, retold here.

Chain of human GluN1/GluN2B NMDA receptors (Q13224 27-1484, other chains not shown): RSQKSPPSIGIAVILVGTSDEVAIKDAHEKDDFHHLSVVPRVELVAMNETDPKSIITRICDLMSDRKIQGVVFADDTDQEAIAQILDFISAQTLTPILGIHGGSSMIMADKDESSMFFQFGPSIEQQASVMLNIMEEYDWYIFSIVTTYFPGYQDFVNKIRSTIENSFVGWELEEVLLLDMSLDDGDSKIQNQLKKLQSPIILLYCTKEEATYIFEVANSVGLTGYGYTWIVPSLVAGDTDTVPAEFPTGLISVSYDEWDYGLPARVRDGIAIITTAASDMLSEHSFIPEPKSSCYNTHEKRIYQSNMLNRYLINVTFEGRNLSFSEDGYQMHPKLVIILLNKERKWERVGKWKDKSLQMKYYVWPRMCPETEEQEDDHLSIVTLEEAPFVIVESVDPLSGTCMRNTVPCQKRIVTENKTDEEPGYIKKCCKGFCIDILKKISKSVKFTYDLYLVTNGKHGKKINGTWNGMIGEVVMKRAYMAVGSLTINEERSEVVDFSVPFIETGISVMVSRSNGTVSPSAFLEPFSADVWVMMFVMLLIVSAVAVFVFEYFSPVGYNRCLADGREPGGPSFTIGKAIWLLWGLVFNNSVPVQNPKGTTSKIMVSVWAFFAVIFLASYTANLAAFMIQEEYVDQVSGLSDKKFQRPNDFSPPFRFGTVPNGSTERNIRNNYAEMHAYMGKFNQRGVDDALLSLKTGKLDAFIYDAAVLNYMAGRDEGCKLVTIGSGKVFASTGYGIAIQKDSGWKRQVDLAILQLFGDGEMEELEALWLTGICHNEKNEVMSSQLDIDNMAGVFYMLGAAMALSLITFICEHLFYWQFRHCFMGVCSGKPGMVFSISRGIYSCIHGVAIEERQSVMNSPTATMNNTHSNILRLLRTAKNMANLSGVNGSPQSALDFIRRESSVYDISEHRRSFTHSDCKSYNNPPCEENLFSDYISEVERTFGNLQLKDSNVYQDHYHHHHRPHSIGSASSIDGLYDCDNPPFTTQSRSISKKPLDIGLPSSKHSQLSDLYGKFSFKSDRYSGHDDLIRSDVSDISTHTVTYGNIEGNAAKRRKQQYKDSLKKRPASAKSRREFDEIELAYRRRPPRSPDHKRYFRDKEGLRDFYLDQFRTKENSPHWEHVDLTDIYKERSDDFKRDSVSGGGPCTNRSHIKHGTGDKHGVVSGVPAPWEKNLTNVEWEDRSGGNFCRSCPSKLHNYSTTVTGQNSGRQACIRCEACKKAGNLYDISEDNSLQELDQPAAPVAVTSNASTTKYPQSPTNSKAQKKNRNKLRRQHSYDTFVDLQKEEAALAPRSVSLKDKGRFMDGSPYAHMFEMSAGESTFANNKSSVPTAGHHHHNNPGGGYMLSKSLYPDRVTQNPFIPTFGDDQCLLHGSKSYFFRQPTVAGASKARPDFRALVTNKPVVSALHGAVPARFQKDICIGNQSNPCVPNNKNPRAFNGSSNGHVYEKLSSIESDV

The target of this experiment is human GluN1/GluN2B NMDA receptors (Homo sapiens, UniProt Q05586+Q13224). Kind of experiment: Cell-based calcium flux (FLIPR) assay on cloned human NR1/NR2B ion channels expressed in mammalian cells. The settings on record: standard assay; human GluN1/GluN2B, calcium flux (FLIPR), glutamate ~EC80. The method in brief:
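Calcium influx followed by FLIPR fluorescence after 5 min compound exposure and a further 5 min co-agonist challenge: 10 μM glycine with glutamate at ~EC80 (standard) or EC40 (HTS).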
(In general: Calcium flux is commonly read through the fluorescence of an indicator in the cells.)
Regarding `Fc1ccc(-n2cc(COc3nccc(N4CCCC4)n3)nn2)cc1OC(F)F` [Example 168, 2-[[1-[3-(Difluoromethoxy)-4-fluoro-phenyl]triazol-4-yl]methoxy]-4-pyrrolidin-1-yl-pyrimidine], the IC50 is 0.008 µM.
The same measure for `Fc1ccc(-n2cc(COc3nccc(N4CCCCC4)n3)nn2)cc1OC(F)F` [Example 169, 2-[[1-[3-(Difluoromethoxy)-4-fluoro-phenyl]triazol-4-yl]methoxy]-4-(1-piperidyl)pyrimidine]: 0.031 µM; for `Fc1ccc(-n2cc(COc3nccc(N4CCOCC4)n3)nn2)cc1OC(F)F` [Example 170, 4-[2-[[1-[3-(Difluoromethoxy)-4-fluoro-phenyl]triazol-4-yl]methoxy]pyrimidin-4-yl]morpholine]: 0.26 µM.
For `CNc1ccnc(OCc2cn(-c3ccc(Cl)c(OC(F)F)c3)nn2)n1` [Example 171, 2-[[1-[4-Chloro-3-(difluoromethoxy)phenyl]triazol-4-yl]methoxy]-N-methyl-pyrimidin-4-amine] the value was 0.006 µM.
Consider `COc1cnc(OCc2nnn(-c3cccc(C(F)F)c3)c2C)nc1` [Example 172, 2-[[1-[3-(Difluoromethyl)phenyl]-5-methyl-triazol-4-yl]methoxy]-5-methoxy-pyrimidine], for which the IC50 was found to be 0.468 µM.
For `Cc1cnc(OCc2nnn(-c3ccc(F)c(C(C)(F)F)c3)c2C)nc1` [Example 173, 2-[[1-[3-(1,1-Difluoroethyl)-4-fluoro-phenyl]-5-methyl-triazol-4-yl]methoxy]-5-methyl-pyrimidine] the value was 0.465 µM; for `Cc1cnc(OCc2cn(-c3cccc(C)n3)nn2)nc1` [Example 174, 5-Methyl-2-[[1-(6-methyl-2-pyridyl)triazol-4-yl]methoxy]pyrimidine], over 2.99 µM; for `Cc1cnc(OCc2cn(-c3ccnc(C)c3)nn2)nc1` [Example 175, 5-Methyl-2-[[1-(2-methyl-4-pyridyl)triazol-4-yl]methoxy]pyrimidine], 0.655 µM.
For `Cc1cnc(OCc2cn(-c3cncc(C)c3)nn2)nc1` [Example 176, 5-Methyl-2-[[1-(5-methyl-3-pyridyl)triazol-4-yl]methoxy]pyrimidine] the value was 0.929 µM; for `Cc1cnc(OCc2cn(-c3ccnc(Br)c3)nn2)nc1` [Example 177, 2-[[1-(2-Bromo-4-pyridyl)triazol-4-yl]methoxy]-5-methyl-pyrimidine], 0.172 µM; for `CC(C)(O)c1cnc(OCc2cn(-c3ccc(F)c(C4CCC4)c3)nn2)nc1` [Example 178, 2-[2-[[1-(3-Cyclobutyl-4-fluoro-phenyl)triazol-4-yl]methoxy]pyrimidin-5-yl]propan-2-ol], 0.349 µM.
`CC(C)c1cc(-n2cc(COc3ncc(C(C)(C)O)cn3)nn2)ccc1F` [Example 179, 2-[2-[[1-(4-Fluoro-3-isopropyl-phenyl)triazol-4-yl]methoxy]pyrimidin-5-yl]propan-2-ol]: the IC50 worked out at 0.029 µM.
The same measure for `CC(C)(O)c1cnc(OCc2cn(-c3ccc(F)c(C4CC4)c3)nn2)nc1` [Example 180, 2-[2-[[1-(3-Cyclopropyl-4-fluoro-phenyl)triazol-4-yl]methoxy]pyrimidin-5-yl]propan-2-ol]: 0.133 µM.
For `Cc1cc(-n2cc(COc3ncc(C(C)(C)O)cn3)nn2)ccc1F` [Example 181, 2-[2-[[1-(4-Fluoro-3-methyl-phenyl)triazol-4-yl]methoxy]pyrimidin-5-yl]propan-2-ol] the value was 0.097 µM; for `CCc1cc(-n2cc(COc3ncc(C(C)(C)O)cn3)nn2)ccc1F` [Example 182, 2-[2-[[1-(3-Ethyl-4-fluoro-phenyl)triazol-4-yl]methoxy]pyrimidin-5-yl]propan-2-ol], 0.027 µM; for `CC(F)(F)c1cc(-n2cc(COc3ncc(Br)cn3)nn2)ccc1F` [Example 183, 5-Bromo-2-[[1-[3-(1,1-difluoroethyl)-4-fluoro-phenyl]triazol-4-yl]methoxy]pyrimidine], 0.009 µM.
The same measure for `Cn1ccc(-c2cnc(OCc3cn(-c4ccc(F)c(C(C)(F)F)c4)nn3)nc2)n1` [Example 184, 2-[[1-[3-(1,1-Difluoroethyl)-4-fluoro-phenyl]triazol-4-yl]methoxy]-5-(1-methylpyrazol-3-yl)pyrimidine]: 0.309 µM; for `CC(F)(F)c1cc(-n2cc(COc3ncc(-c4cn[nH]c4)cn3)nn2)ccc1F` [Example 185, 2-[[1-[3-(1,1-Difluoroethyl)-4-fluoro-phenyl]triazol-4-yl]methoxy]-5-(1H-pyrazol-4-yl)pyrimidine]: 0.166 µM.
On to `CC(F)(F)c1cc(-n2cc(COc3nccc(-c4cn[nH]c4)n3)nn2)ccc1F` [Example 186, 2-[[1-[3-(1,1-Difluoroethyl)-4-fluoro-phenyl]triazol-4-yl]methoxy]-4-(1H-pyrazol-4-yl)pyrimidine], for which the IC50 was 1.36 µM.
For `CC(F)(F)c1cc(-n2cc(COc3ncc(N4CCOCC4)cn3)nn2)ccc1F` [Example 187, 4-(2-((1-(3-(1,1-Difluoroethyl)-4-fluorophenyl)-1H-1,2,3-triazol-4-yl)methoxy)pyrimidin-5-yl)morpholine] the value was 0.088 µM.
The same measure for `FC(F)c1cc(-n2cc(COc3ncccn3)nn2)ccc1N1CCC1` [Example 188, 2-((1-(4-(Azetidin-1-yl)-3-(difluoromethyl)phenyl)-1H-1,2,3-triazol-4-yl)methoxy)pyrimidine]: 4.58 µM; for `Fc1cnc(OCc2cn(-c3ccc(Cl)c(OC(F)F)c3)nn2)cn1` [Example 189, 2-[[1-[4-Chloro-3-(difluoromethoxy)phenyl]triazol-4-yl]methoxy]-5-fluoro-pyrazine]: 1.46 µM; for `FC(F)Oc1cc(-n2cc(COc3nccc(Cl)n3)nn2)ccc1Cl` [Example 190, 4-Chloro-2-[[1-[4-chloro-3-(difluoromethoxy)phenyl]triazol-4-yl]methoxy]pyrimidine]: 0.026 µM.
As for `Fc1ccnc(OCc2cn(-c3ccc(Cl)c(OC(F)F)c3)nn2)n1` [Example 191, 2-[[1-[4-Chloro-3-(difluoromethoxy)phenyl]triazol-4-yl]methoxy]-4-fluoro-pyrimidine], the IC50 was determined as 0.023 µM.
The same measure for `FCCOc1cnc(OCc2cn(-c3ccc(Cl)c(OC(F)F)c3)nn2)nc1` [Example 192, 2-[[1-[4-Chloro-3-(difluoromethoxy)phenyl]triazol-4-yl]methoxy]-5-(2-fluoroethoxy)pyrimidine]: 0.03 µM; for `COc1cnc(OCc2cn(-c3ccc(Cl)c(OCCF)c3)nn2)nc1` [Example 193, 2-[[1-[4-Chloro-3-(2-fluoroethoxy)phenyl]triazol-4-yl]methoxy]-5-methoxy-pyrimidine]: 0.089 µM; for `COc1cnc(OCc2cn(-c3ccc(F)c(CCCF)c3)nn2)nc1` [Example 194, 2-[[1-[4-Fluoro-3-(3-fluoropropyl)phenyl]triazol-4-yl]methoxy]-5-methoxy-pyrimidine]: 0.061 µM.
For `COc1cnc(OCc2cn(-c3ccc(F)c(CCCCl)c3)nn2)nc1` [Example 195, 2-[[1-[3-(3-Chloropropyl)-4-fluoro-phenyl]triazol-4-yl]methoxy]-5-methoxy-pyrimidine] the value was 0.136 µM.
The same measure for `FCCCc1cnc(OCc2cn(-c3ccc(Cl)c(OC(F)F)c3)nn2)nc1` [Example 196, 2-[[1-[4-Chloro-3-(difluoromethoxy)phenyl]triazol-4-yl]methoxy]-5-(3-fluoropropyl)pyrimidine]: 0.024 µM; for `Fc1cnc(NCc2cn(-c3cccc(C(F)F)c3)nn2)nc1` [Example 197, N-[[1-[3-(Difluoromethyl)phenyl]triazol-4-yl]methyl]-5-fluoro-pyrimidin-2-amine]: 0.652 µM.
As for `Cc1cnc(NCc2cn(-c3ccc(F)c(C)c3)nn2)nc1` [Example 198, N-[[1-(4-Fluoro-3-methyl-phenyl)triazol-4-yl]methyl]-5-methyl-pyrimidin-2-amine], the IC50 amounted to 0.147 µM.
The same measure for `Cc1cc(-n2cc(CNc3ncc(Cl)c(C)n3)nn2)ccc1F` [Example 199, 5-Chloro-N-[[1-(4-fluoro-3-methyl-phenyl)triazol-4-yl]methyl]-4-methyl-pyrimidin-2-amine]: 0.051 µM; for `FC(F)c1cc(-n2cc(CNc3ncc(Cl)cn3)nn2)ccc1Cl` [Example 200, 5-Chloro-N-[[1-[4-chloro-3-(difluoromethyl)phenyl]triazol-4-yl]methyl]pyrimidin-2-amine]: 0.131 µM; for `Cc1ccnc(NCc2cn(-c3ccc(Cl)c(C(F)F)c3)nn2)n1` [Example 201, N-[[1-[4-Chloro-3-(difluoromethyl)phenyl]triazol-4-yl]methyl]-4-methyl-pyrimidin-2-amine]: 0.1 µM.
The same measure for `CCc1cnc(NCc2cn(-c3ccc(Cl)c(C(F)F)c3)nn2)nc1` [Example 202, N-[[1-[4-Chloro-3-(difluoromethyl)phenyl]triazol-4-yl]methyl]-5-ethyl-pyrimidin-2-amine]: 0.044 µM.
For `COc1cnc(NCc2cn(-c3ccc(Cl)c(C(F)F)c3)nn2)nc1` [Example 203, N-[[1-[4-Chloro-3-(difluoromethyl)phenyl]triazol-4-yl]methyl]-5-methoxy-pyrimidin-2-amine] the value was 0.03 µM.
Take `FC(F)c1cnc(NCc2cn(-c3ccc(Cl)c(C(F)F)c3)nn2)nc1` [Example 204, N-[[1-[4-Chloro-3-(difluoromethyl)phenyl]triazol-4-yl]methyl]-5-(difluoromethyl)pyrimidin-2-amine]: the IC50 is 0.24 µM.
For `FC(F)c1cc(-n2cc(CNc3ncc(C(F)(F)F)cn3)nn2)ccc1Cl` [Example 205, N-[[1-[4-Chloro-3-(difluoromethyl)phenyl]triazol-4-yl]methyl]-5-(trifluoromethyl)pyrimidin-2-amine] the value was 0.616 µM.
The same measure for `Cc1cnc(NCc2cn(-c3ccc(F)c(C(C)(F)F)c3)nn2)nc1` [Example 206, N-[[1-[3-(1,1-Difluoroethyl)-4-fluoro-phenyl]triazol-4-yl]methyl]-5-methyl-pyrimidin-2-amine]: 0.219 µM.

The term IC50 denotes the midpoint of a concentration-inhibition curve.
